Measurements from paper PMC7037283, “Introduction of Mercaptoethyl at Sorafenib Pyridine-2-Amide Motif as a Potentially Effective Chain to Further get Sorafenib-PEG-DGL” (Molecules, 2020).

Legend:
[1] = tested on: MDA-MB-231 (triple negative breast cancer); test: MTT anti-proliferative assay, MDA-MB-231; format: cell-based; details: Homo sapiens, 48 h treatment
Protocol: (§1) The in vitro anti-proliferation of the chemical compounds was measured by the MTT reagent. Briefly, 5 × 10^3 cells in 100 μL of medium per well were plated in 96-well plates. After being incubated for 24 h at 37 °C, the cells were treated with different concentration of tested compound or DMSO (as negative control) for 48 h. Then the medium with compound or DMSO was replaced with 200 μL of fresh medium containing 10% MTT (5 mg/mL in PBS) in each well and incubated at 37 °C for 4 h. Last, the MTT-containing medium was discarded and 150 μL of DMSO per well was added to dissolve the formazan crystals newly formed. Absorbance of each well was determined by a microplate reader (Synergy H4, Bio-Tek) at a 570 nm wavelength. The inhibition rates of proliferation were calculated with the following equation:Inhibition ratio (%) = (ODDMSO−ODcompd)/(ODDMSO−ODblank) × 100(1)
(§2) The concentration of the compounds that inhibited cell growth by 50% (IC50) was calculated using GraphPad Prism, version 6.0.

293T = test: MTT anti-proliferative assay, nontumorigenesis cells 293T; format: cell-based; details: Homo sapiens, HEK-293T, 48 h treatment
Protocol: as §1, §2

HepG2 = test: MTT anti-proliferative assay, HepG2; format: cell-based; details: Homo sapiens, 48 h treatment
Protocol: as §1, §2

[2] = tested on: Hela (human cervical carcinoma); test: MTT anti-proliferative assay, Hela; format: cell-based; details: 48 h treatment
Protocol: as §1, §2

[3] = tested on: HUVEC (Human Umbilical Vein Endothelial Cells); test: MTT anti-proliferative assay, nontumorigenesis cells HUVEC; format: cell-based; details: 48 h treatment
Protocol: as §1, §2

MCF-7 = test: MTT anti-proliferative assay, MCF-7; format: cell-based; details: Homo sapiens, MCF7, 48 h treatment
Protocol: as §1, §2

Huh7 = test: MTT anti-proliferative assay, Huh7; format: cell-based; details: Homo sapiens, Huh-7, 48 h treatment
Protocol: as §1, §2

[4] = tested on: mouse melanoma cell line B16F10; test: MTT anti-proliferative assay, B16F10; format: cell-based; details: B16-F10, 48 h treatment
Protocol: as §1, §2

A549 = test: MTT anti-proliferative assay, A549; format: cell-based; details: Homo sapiens, 48 h treatment
Protocol: as §1, §2

Q: With `CC(CCO)NNC(=O)c1cc(Oc2ccc(NC(=O)Nc3ccc(Cl)c(C(F)(F)F)c3)cc2)ccn1` (stereo not shown) [Compound 15b, 1-(4-Chloro-3-(trifluoromethyl)phenyl)-3-(4-((2-(2-(4-hydroxybutan-2-yl)hydrazine-1-carbonyl)pyridin-4-yl)oxy)phenyl)urea] as the compound, how does the IC50 [1] read?
A: > 500 µM

Q: What about the IC50 (293T) of the same compound?
A: 559 µM

Q: And the IC50 (HepG2)?
A: > 500 µM

Q: And the IC50 [2]?
A: > 500 µM

Q: And the IC50 [3]?
A: 1250 µM

Q: And the melting point?
A: 89 to 92 °C

Q: What about the IC50 (MCF-7) of the same compound?
A: > 500 µM

Q: And the IC50 (Huh7)?
A: > 500 µM

Q: And the IC50 [4]?
A: > 500 µM

Q: And the IC50 (A549)?
A: > 500 µM

Q: With `CC(CO)NNC(=O)c1cc(Oc2ccc(NC(=O)Nc3ccc(Cl)c(C(F)(F)F)c3)cc2)ccn1` (stereo not shown) [Compound 15a, 1-(4-Chloro-3-(trifluoromethyl)phenyl)-3-(4-((2-(2-(1-hydroxypropan-2-yl)hydrazine-1-carbonyl)pyridin-4-yl)oxy)phenyl)urea] as the compound, how does the IC50 [1] read?
A: > 500 µM

Q: What about the IC50 (293T) of the same compound?
A: 1580 µM

Q: And the IC50 (HepG2)?
A: 80.1 µM

Q: What about the IC50 [2] of the same compound?
A: > 500 µM

Q: And the IC50 [3]?
A: 320 µM

Q: And the melting point?
A: 139 to 141 °C

Q: What about the IC50 (MCF-7) of the same compound?
A: > 500 µM

Q: What about the IC50 (Huh7) of the same compound?
A: > 500 µM

Q: What about the IC50 [4] of the same compound?
A: > 500 µM

Q: And the IC50 (A549)?
A: 46.2 µM

Q: For `O=C(Nc1ccc(Oc2ccnc(C(=O)NCCCO)c2)cc1)Nc1ccc(Cl)c(C(F)(F)F)c1` [Compound 10c, N-(3-hydroxypropyl)-4-(4-(3-(4-chloro-3-(trifluoromethyl)phenyl)ureido)phenoxy)picolinamide], which IC50 [1] is on record?
A: 330 µM

Q: And the IC50 (293T)?
A: 454 µM

Q: What about the IC50 (HepG2) of the same compound?
A: 90.1 µM

Q: And the IC50 [2]?
A: 233 µM

Q: What about the IC50 [3] of the same compound?
A: 329 µM

Q: What about the melting point of the same compound?
A: 103 to 105 °C

Q: And the IC50 (MCF-7)?
A: 268 µM

Q: And the IC50 (Huh7)?
A: 88.4 µM

Q: What about the IC50 [4] of the same compound?
A: 449 µM

Q: And the IC50 (A549)?
A: > 500 µM

Q: What does the source list for `O=C(Nc1ccc(Oc2ccnc(C(=O)NCCO)c2)cc1)Nc1ccc(Cl)c(C(F)(F)F)c1` [Compound 10a, N-(2-hydroxyethyl)-4-(4-(3-(4-chloro-3-(trifluoromethyl)phenyl)ureido)phenoxy)picolinamide]?
A: IC50 [1]: > 500 µM; IC50 (293T): 643 µM; IC50 (HepG2): 70.7 µM; IC50 [2]: > 500 µM; IC50 [3]: 583 µM; melting point: 193 to 195 °C; IC50 (MCF-7): 471 µM; IC50 (Huh7): 319 µM; IC50 [4]: > 500 µM; IC50 (A549): 287 µM

Q: What does the source list for `O=C(Nc1ccc(Oc2ccnc(C(=O)NCCS)c2)cc1)Nc1ccc(Cl)c(C(F)(F)F)c1` [Compound 10b, N-(2-mercaptoethyl)-4-(4-(3-(4-chloro-3-(trifluoromethyl)phenyl)ureido)phenoxy) picolinamide]?
A: IC50 [1]: 295 µM; IC50 (293T): 135 µM; IC50 (HepG2): 282 µM; IC50 [2]: 63.7 µM; IC50 [3]: 197 µM; IC50 (MCF-7): 159 µM; IC50 (Huh7): 58.8 µM; IC50 [4]: > 500 µM; IC50 (A549): 447 µM

Q: Which IC50 [1] does the source give for `CNC(=O)c1cc(Oc2ccc(NC(=O)Nc3ccc(Cl)c(C(F)(F)F)c3)cc2)ccn1` [Sorafenib] here?
A: 12.3 µM

Q: And the IC50 (293T)?
A: 16.1 µM

Q: What about the IC50 (HepG2) of the same compound?
A: 24.1 µM

Q: What about the IC50 [2] of the same compound?
A: 49.5 µM

Q: And the IC50 [3]?
A: 35.5 µM

Q: And the IC50 (MCF-7)?
A: 37.2 µM

Q: What about the IC50 (Huh7) of the same compound?
A: 19.5 µM

Q: And the IC50 [4]?
A: 17.3 µM

Q: And the IC50 (A549)?
A: 17.4 µM
